Reference: US10493045B2, “Method for treating alcohol dependence or alcohol abuse” (priority 2016, dated 2019)
Several values for one entry are separate records, joined by “and”; a condition that tells them apart may be missing. Identical values can stand only once.

Columns and labels:
NMDA receptors = settings: read-out: 50% inhibition concentration [IC50], block of NMDA receptors; cited from earlier work
[1] = tested on: plasma TNF-α, CRP, TGF-β1, IL-8, IL-10, and BDNF; experiment: Plasma cytokine and BDNF levels by ELISA during 12-week add-on memantine treatment; type: in vivo, human
Protocol: (§1) Eligible patients were given low-dose (less than 5 mg/day) add-on memantine (5 mg/day) after an initial screening, with open-label valproic acid (VPA) treatment (500 or 1000 mg/day or […] in plasma) which had begun when they joined the study. The severity of mood symptoms was assessed by using the Hamilton Depression Rating Scale (HDRS) and the Young Mania Rating Scale (YMRS). Only patients with moderate mood symptoms (HDRS≥18 or YMRS≥14) were recruited. The exact amount of alcohol used by each patient was assessed by using the Chinese version of the Modified SADS-L. Symptom severity and alcohol use were assessed at baseline, and treatment responses were measured on day 7 of weeks 1, 2, 4, 8, and 12. Concomitant benzodiazepine medications (lorazepam<8 mg and chlordiazepoxide<240 mg) were used for nighttime sedation and withdrawal symptoms during the study. Up to 20 mg/day of fluoxetine was permitted for associated depressive symptoms, and 1-3 mg of risperidone was used for hypomanic symptoms.
Ten milliliters of whole blood was withdrawn from the antecubital vein of each patient when clinical severity was assessed: at baseline, and on day 7 of weeks 1, 2, 4, 8, and 12. Plasma, which was isolated from the whole blood after it had been centrifuged at 3000 g for 15 min at 4° C., was immediately stored at −80° C. The enzyme-linked immunosorbent assay was used to quantify the cytokine levels by ELISA reader (SpectraMax® M2e, Molecular Devices, USA). Sample processing and data analysis were done according to the manufacturer's instructions. The immunological parameters—plasma TNF-α, CRP, TGF-β1, IL-8, IL-10, and BDNF—were analyzed.
(§2) The intent to-treat (ITT) analysis set included all patients who had taken at least one dose of the studied drug, and had undergone one baseline assessment and at least one post-baseline assessment. All outcome variables—HDRS, YMRS, cytokine levels, plasma BDNF levels, and metabolic parameters—in the ITT set were analyzed. Missing data were filled in by using the last observation carried forward (LOCF) method.
(§3) The overall within-group changes of each outcome over 12 weeks were analyzed by using generalized estimating equations (GEEs). The present invention ran 10 models and each outcome was deemed as a dependent variable. In each model, treatment duration, gender, and age were considered as independent variables. The covariance structure used was the autoregressive (AR [1]) model. The significance of change of each outcome over 12-week follow-up was represented by the variable “treatment duration.” Linear regression analysis was used to analyze correlations between changes in alcohol use and changes in cytokine and BDNF levels in 12 weeks. Changes in alcohol use were dependent variables, and changes in HDRS and YMRS scores, and in plasma cytokine and BDNF levels (controlled for gender, age, and baseline clinical severity) were independent variables. SPSS 22.0 for Windows was used for all statistical computations. Significance was set at p<0.05.

[2] = Plasma memantine concentration in treated patients; type: in vivo, human; settings: patients given 5 mg/day of memantine
[3] = tested on: BD-II patients with comorbid alcohol dependence; experiment: 12-week open-label low-dose add-on memantine treatment: clinical severity (HDRS, YMRS) and alcohol use; type: in vivo, human
From the text: BD-II patients with comorbid alcohol dependence were recruited from outpatient and inpatient settings in Taiwan. All patients were initially evaluated by an attending psychiatrist and then given a structural interview by a clinical psychologist to determine according to the Diagnostic and Statistical Manual of Mental Disorders, Fourth Edition, Text Revision (DSM-IV-TR), and the Chinese version of the Modified Schedule of Affective Disorder and Schizophrenia-Life Time (SADS-L) was used, which had good inter-rater reliability. Patients suffering from major mental illnesses other than BD-II and alcohol dependence and patients who had taken memantine within 1 week before the study began were excluded.
as §1, §2, §3

alcohol use = settings: up to 40 mg/day of memantine; cited from earlier work
post-dependent (PD) rats = settings: injection 25 mg/kg; cited from earlier work
[4] = tested on: opioid-dependent patients undergoing methadone maintenance treatment; settings: add-on memantine; cited from earlier work
[5] = tested on: morphine-induced conditioned-place-preference behavior; settings: rats; low-dose 0.02 mg/kg; cited from earlier work

CC12CC3CC(C)(C1)CC(N)(C3)C2 [memantine]
IC50 (NMDA receptors): 2000 to 3000 nM
IL-10, mean at endpoint ([1]; endpoint 12 weeks, n = 26, baseline mean 2.09): 1.92
TNF-α, mean at endpoint ([1]; endpoint 12 weeks, n = 26, baseline mean 2.64): 2.66
IL-8, mean at endpoint ([1]; endpoint 12 weeks, n = 26, baseline mean 17.64): 10.22
CRP, mean at endpoint ([1]; endpoint 12 weeks, n = 26, baseline mean 2960.48): 2382.29
BDNF, mean at endpoint ([1]; endpoint 12 weeks, n = 26, baseline mean 16196.64): 18910.46
TGF-β1, mean at endpoint ([1]; endpoint 12 weeks, n = 26, baseline mean 30884.32): 27653.85
Change in TGF-β1 over 12 weeks of treatment ([1]; within-group change, GEE, p 0.080): −3586.37
Change in IL-10 over 12 weeks of treatment ([1]; within-group change, GEE, p 0.605): −0.182
Change in TNF-α over 12 weeks of treatment ([1]; within-group change, GEE, p 0.89): 0.04
Plasma memantine concentrations [2]: 10-50 ng/ml and 0.05-0.2 μM
Patients who stopped drinking during the first week of memantine treatment ([3]; 15 patients of 45, first week): 33.3%
Patients who reduced their alcohol use to 0 unit after 12 weeks ([3]; 22/26 patients, after 12 weeks): 84.6%
HDRS, mean at endpoint ([3]; BD-II patients with comorbid alcohol dependence, add-on memantine less than 5 mg/day plus VPA, endpoint 12 weeks, n = 26, baseline mean 14.4 (n = 45)): 9.4
Reduction of alcohol use after 12 weeks of treatment, all of the patients ([3]; after 12 weeks): > 50%
YMRS, mean at endpoint ([3]; endpoint 12 weeks, n = 26, baseline mean 13.8 (n = 45)): 9.4
Alcohol use (unit), mean at endpoint ([3]; endpoint 12 weeks, n = 26, baseline mean 73.9 (n = 45)): 11.8 unit
Alcohol use as compared to placebo (alcohol use): not significantly reduced
Alcohol drinking during acute withdrawal (post-dependent (PD) rats): reduced
Relapses of alcohol dependence after protracted abstinence (post-dependent (PD) rats): did not reduce
Plasma tumor necrosis factor-α (TNF-α) levels [4]: significantly downregulates
Required methadone dose [4]: reduces
Transforming growth factor-β1 (TGF-β1) levels [4]: upregulates
Morphine-induced conditioned-place-preference behavior [5]: abolishes
